This passage reports IC50 results from patent US20240124504A1, “AROMATIC HETEROCYCLIC COMPOUND, AND PHARMACEUTICAL COMPOSITION AND APPLICATION THEREOF” (GT APEIRON THERAPEUTICS LIMITED, priority 2020, published 2024).

Read-outs that look alike come from different tables or passages of the source.

Format in all cases: biochemical
Assay [1] addresses CDK7/cyclinH/MAT1 complex (Homo sapiens, UniProt P50613). Description: In-vitro enzymatic inhibitory activity testing, CDK7 inhibition assay (Caliper EZ Reader II). As to conditions: CDK7/cyclinH/MAT1 6 nM, 180 min at 27° C. The method, then: (§1) CDK12/CyclinK was diluted in an assay buffer (80 mM MES PH 6.5, 0.01% Tween 20, 50 ug/mL BSA, 10 mM MgCl2) to afford a corresponding enzyme solution with the 2.4 concentration. A compound was dissolved in dimethyl sulfoxide (DMSO) at a concentration of 10 mM. […] 2 ul of a test compound solution was mixed with 5 ul of the enzyme solution; after incubation for 10 min, 5 ul of the polypeptide substrate and ATP mixed solution was added; incubation was carried out for 180 min at 27° C.; and then, the reaction was terminated by adding 4 uL of EDTA with a concentration of 120 mM to each sample. […] A CDK9/cyclinT1 complex (8 nM) and a “5-FAM-CDK9tide” peptide substrate (2 IM, synthetic fluorophore-labeled peptide with the following sequence: 5-FAM-GSRTPMY-NH2, wherein 5-FAM was as defined above and NH2 represented C-terminal amide) were used for a CDK9 inhibition assay. […] A CDK2/cyclinE1 complex (0.5 nM) and “5-FAM-CDK7tide” (2 μM) as defined above were used for CDK2 inhibition assay.
(§2) A reaction mixture was analyzed on Caliper EZ Reader II by electrophoretic separation of a fluorogenic substrate and a phosphorylated product. Data were calculated by using GraphPad Prism version 6.0, and IC50 values were adjusted and obtained by using a nonlinear regression model of a dose response curve.

In assay [2] the target is CDK2/cyclinE1 complex (Homo sapiens, UniProt P24941). Description: In-vitro enzymatic inhibitory activity testing, CDK2 inhibition assay (Caliper EZ Reader II). As to conditions: CDK2/cyclinE1 0.5 nM, 180 min at 27° C. The method, then: CDK12/CyclinK was diluted in an assay buffer (80 mM MES PH 6.5, 0.01% Tween 20, 50 ug/mL BSA, 10 mM MgCl2) to afford a corresponding enzyme solution with the 2.4 concentration. […] A CDK9/cyclinT1 complex (8 nM) and a “5-FAM-CDK9tide” peptide substrate (2 IM, synthetic fluorophore-labeled peptide with the following sequence: 5-FAM-GSRTPMY-NH2, wherein 5-FAM was as defined above and NH2 represented C-terminal amide) were used for a CDK9 inhibition assay. […] A CDK2/cyclinE1 complex (0.5 nM) and “5-FAM-CDK7tide” (2 μM) as defined above were used for CDK2 inhibition assay.
as §2

Assay [3] concerns the target CDK9/cyclinT1 complex (Homo sapiens, UniProt P50750). Description: In-vitro enzymatic inhibitory activity testing, CDK9 inhibition assay (Caliper EZ Reader II). Conditions: CDK9/cyclinT1 8 nM, 180 min at 27° C. The method, then:
as §1, §2

The target in assay [4] is T1, CDK12 (aa686-1082)/cyclinK complex (Homo sapiens, UniProt Q9NYV4).
T1 construct: A CDK12 (aa686-1082)/cyclinK complex (50 nM)
T1 sequence (Q9NYV4 686-1082, species assumed): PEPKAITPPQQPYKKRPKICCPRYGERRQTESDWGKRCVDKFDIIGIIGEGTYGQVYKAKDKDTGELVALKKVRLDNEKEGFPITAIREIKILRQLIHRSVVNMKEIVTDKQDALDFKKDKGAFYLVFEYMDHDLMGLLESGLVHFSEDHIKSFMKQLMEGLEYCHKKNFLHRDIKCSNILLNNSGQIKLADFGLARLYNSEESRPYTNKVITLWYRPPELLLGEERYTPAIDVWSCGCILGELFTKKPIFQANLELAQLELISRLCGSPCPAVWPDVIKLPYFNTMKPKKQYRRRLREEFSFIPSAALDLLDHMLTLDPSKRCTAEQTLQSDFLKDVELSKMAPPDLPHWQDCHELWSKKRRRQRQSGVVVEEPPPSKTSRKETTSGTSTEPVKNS
T1 sequence (O75909 whole entry partner, species assumed, the tested form may be a part): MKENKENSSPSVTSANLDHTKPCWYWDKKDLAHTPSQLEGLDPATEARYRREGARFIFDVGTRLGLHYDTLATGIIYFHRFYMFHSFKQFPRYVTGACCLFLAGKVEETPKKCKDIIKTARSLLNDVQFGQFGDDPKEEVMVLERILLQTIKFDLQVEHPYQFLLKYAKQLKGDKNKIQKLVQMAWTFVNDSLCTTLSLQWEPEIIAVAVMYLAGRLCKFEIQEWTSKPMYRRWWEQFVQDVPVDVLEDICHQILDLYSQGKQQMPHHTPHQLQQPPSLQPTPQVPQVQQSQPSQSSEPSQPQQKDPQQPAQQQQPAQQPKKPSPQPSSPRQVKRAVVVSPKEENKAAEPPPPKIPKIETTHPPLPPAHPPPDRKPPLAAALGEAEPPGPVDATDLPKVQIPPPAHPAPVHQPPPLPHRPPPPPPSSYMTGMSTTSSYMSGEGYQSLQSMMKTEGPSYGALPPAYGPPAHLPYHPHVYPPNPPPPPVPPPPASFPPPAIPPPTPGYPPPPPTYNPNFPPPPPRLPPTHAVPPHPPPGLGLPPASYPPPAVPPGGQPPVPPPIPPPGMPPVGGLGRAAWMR
Description: In-vitro enzymatic inhibitory activity testing, CDK12 inhibition assay (Caliper EZ Reader II). As to conditions: 180 min at 27° C. The method, then: An assay was carried out in a U-bottom 384-well plate (coming, 4512#), and the reaction temperature was 27° C. CDK7/CyclinH was diluted in an assay buffer (20 mM MES PH 6.75, 0.01% Tween 20, 50 ug/mL BSA, 6 mM MgCl2) to afford a corresponding enzyme solution with the 2.4× concentration. CDK2/CyclinE1 was diluted in an assay buffer (20 mM MES PH 6.75, 0.01% Tween 20, 50 ug/mL BSA, 6 mM MgCl2) to afford a corresponding enzyme solution with the 2.4× concentration. CDK9/CyclinT1 was diluted in an assay buffer (20 mM MES PH 6.75, 0.01% Tween 20, 50 ug/mL BSA, 10 mM MgCl2) to afford a corresponding enzyme solution with the 2.4× concentration. CDK12/CyclinK was diluted in an assay buffer (80 mM MES PH 6.5, 0.01% Tween 20, 50 ug/mL BSA, 10 mM MgCl2) to afford a corresponding enzyme solution with the 2.4 concentration. A compound was dissolved in dimethyl sulfoxide (DMSO) at a concentration of 10 mM. During use, the compound was diluted with DMSO into 10 concentration gradients from 25 nM to 500 uM, and respectively diluted by 8.3 folds in the assay buffer to afford a compound solution with a 6× concentration. A polypeptide substrate and ATP were diluted in the assay buffer to afford a polypeptide substrate and ATP mixed solution with a 2.4× concentration. 2 ul of a test compound solution was mixed with 5 ul of the enzyme solution; after incubation for 10 min, 5 ul of the polypeptide substrate and ATP mixed solution was added; incubation was carried out for 180 min at 27° C.; and then, the reaction was terminated by adding 4 uL of EDTA with a concentration of 120 mM to each sample. […]. Specifically, a CDK7/cyclinH/MAT1 complex (6 nM) and a “5-FAMCD K 7 tide” peptide substrate (2 μM, synthetic fluorophore-labeled peptide with the following sequence: 5-FAM-[…], wherein “5-FAM” refers to 5-carboxyfluorescein) were used for a CDK7 inhibition assay. A CDK9/cyclinT1 complex (8 nM) and a “5-FAM-CDK9tide” peptide substrate (2 IM, synthetic fluorophore-labeled peptide with the following sequence: 5-FAM-GSRTPMY-NH2, wherein 5-FAM was as defined above and NH2 represented C-terminal amide) were used for a CDK9 inhibition assay. A CDK12 (aa686-1082)/cyclinK complex (50 nM) and “5-FAM-CDK9tide” (2 μM) as defined above were used for a CDK12 inhibition assay. A CDK2/cyclinE1 complex (0.5 nM) and “5-FAM-CDK7tide” (2 μM) as defined above were used for CDK2 inhibition assay.
as §2

[5] abbreviates: CDK12/cyclinK 50 nM, read-out: CDK12 IC50.

Sequence of CDK7/cyclinH/MAT1 complex (P50613 whole entry, species assumed): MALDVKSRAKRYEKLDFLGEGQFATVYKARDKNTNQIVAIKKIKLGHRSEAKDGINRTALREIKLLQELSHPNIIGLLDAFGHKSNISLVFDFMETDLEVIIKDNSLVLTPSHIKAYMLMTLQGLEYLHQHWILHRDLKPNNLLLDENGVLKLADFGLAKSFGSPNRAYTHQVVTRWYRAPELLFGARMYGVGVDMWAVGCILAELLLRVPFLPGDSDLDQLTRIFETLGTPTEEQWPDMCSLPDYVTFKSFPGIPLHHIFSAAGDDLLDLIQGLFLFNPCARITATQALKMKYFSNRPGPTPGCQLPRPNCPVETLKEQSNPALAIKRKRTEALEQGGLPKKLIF
Sequence of CDK7/cyclinH/MAT1 complex (P51946 whole entry partner, species assumed): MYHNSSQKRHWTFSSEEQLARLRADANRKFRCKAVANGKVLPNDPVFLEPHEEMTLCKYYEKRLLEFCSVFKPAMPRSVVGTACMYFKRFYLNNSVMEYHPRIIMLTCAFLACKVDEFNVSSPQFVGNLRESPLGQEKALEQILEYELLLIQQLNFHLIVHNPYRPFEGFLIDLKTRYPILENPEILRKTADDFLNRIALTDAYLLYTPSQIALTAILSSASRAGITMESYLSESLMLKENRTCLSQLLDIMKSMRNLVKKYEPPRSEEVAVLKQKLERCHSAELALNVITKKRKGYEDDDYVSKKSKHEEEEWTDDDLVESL
Sequence of CDK7/cyclinH/MAT1 complex (P51948 whole entry partner, species assumed): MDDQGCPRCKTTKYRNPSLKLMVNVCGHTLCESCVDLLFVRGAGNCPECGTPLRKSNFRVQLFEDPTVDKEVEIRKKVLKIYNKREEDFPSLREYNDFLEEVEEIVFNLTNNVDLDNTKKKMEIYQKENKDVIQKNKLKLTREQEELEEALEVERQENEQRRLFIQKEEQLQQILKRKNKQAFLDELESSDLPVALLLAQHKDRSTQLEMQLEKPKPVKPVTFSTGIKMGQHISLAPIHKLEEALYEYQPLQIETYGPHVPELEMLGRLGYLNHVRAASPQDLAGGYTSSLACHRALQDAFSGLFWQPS
Sequence of CDK9/cyclinT1 complex (P50750 whole entry, species assumed): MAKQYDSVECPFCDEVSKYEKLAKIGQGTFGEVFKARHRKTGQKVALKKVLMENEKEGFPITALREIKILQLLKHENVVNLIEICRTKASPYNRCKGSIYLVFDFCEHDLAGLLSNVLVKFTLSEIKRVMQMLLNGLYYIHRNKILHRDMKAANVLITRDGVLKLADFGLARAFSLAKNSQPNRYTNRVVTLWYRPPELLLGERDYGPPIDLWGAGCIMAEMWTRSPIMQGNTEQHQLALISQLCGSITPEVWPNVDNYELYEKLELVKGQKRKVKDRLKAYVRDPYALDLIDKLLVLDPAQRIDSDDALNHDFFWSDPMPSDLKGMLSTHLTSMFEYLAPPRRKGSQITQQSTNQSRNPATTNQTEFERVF
Sequence of CDK9/cyclinT1 complex (O60563 whole entry partner, species assumed): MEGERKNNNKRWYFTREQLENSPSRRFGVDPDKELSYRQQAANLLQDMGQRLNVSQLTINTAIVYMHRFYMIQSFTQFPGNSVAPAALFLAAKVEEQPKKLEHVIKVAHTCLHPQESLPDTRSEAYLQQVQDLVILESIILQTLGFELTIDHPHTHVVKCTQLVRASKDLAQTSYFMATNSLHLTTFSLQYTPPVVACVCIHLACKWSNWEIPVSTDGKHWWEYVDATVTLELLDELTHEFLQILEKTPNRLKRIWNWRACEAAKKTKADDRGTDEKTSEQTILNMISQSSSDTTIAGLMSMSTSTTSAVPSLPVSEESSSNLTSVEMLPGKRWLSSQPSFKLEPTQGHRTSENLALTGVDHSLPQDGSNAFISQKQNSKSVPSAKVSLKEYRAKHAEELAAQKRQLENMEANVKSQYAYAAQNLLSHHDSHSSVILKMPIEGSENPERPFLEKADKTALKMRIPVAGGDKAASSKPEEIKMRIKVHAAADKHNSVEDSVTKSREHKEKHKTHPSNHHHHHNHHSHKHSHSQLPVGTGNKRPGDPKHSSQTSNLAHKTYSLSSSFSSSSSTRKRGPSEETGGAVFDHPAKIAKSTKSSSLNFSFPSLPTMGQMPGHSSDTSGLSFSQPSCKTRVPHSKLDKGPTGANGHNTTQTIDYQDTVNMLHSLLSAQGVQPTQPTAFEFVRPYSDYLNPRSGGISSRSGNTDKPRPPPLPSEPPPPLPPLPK

In general, IC50 refers to the point on the concentration scale where inhibition reaches its midpoint. Turning to `C[C@@H](CO)Nc1ncc(F)c(-c2c[nH]c3c(P(C)(C)=O)cccc23)n1` [Compound 157, (S)-(3-(5-fluoro-2-((1-hydroxypropan-2-yl)amino)pyrimidin-4-yl)-1H-indole-7-yl)dimethylphosphine oxide], the half-inhibitory concentration (IC50) is 0.2 to 5 µM in assay [1], 0.2 to 5 µM in assay [2], above 50 µM in assay [3] and above 50 µM in assay [4] (setting [5]).

For `C[C@@H](CO)Nc1ncc(C(N)=O)c(-c2c[nH]c3c(P(C)(C)=O)cccc23)n1` [Compound 180, (S)-4-(7-(dimethylphosphoryl)-1H-indole-3-yl)-2-((1-hydroxypropan-2-yl)amino)pyrimidine-5-carboxamide], the IC50 in assay [1] is 5 to 50 µM; in assay [2], above 50 µM; in assay [3], above 50 µM; in assay [4] (setting [5]), above 50 µM.

As to `CP(C)(=O)c1cccc2c(-c3nc(NCC(O)C4CCC4)ncc3C(F)(F)F)c[nH]c12` (single isomer, unassigned) [Compound 140], the IC50 was 0.02 to 0.2 µM in assay [1], 5 to 50 µM in assay [2], above 50 µM in assay [3] and above 50 µM in assay [4] (setting [5]).

Take `FC(F)(F)c1cnc(NC2CCC3(CCNCC3)C2)nc1-c1c[nH]c2nc(N3CCOCC3)ccc12` (centres unmarked) [Compound 42, N-(4-(6-morpholinyl-1H-pyrrolo[2,3-b]pyridin-3-yl)-5-(trifluoromethyl)pyrimidin-2-yl)-8-azaspiro[4.5]decan-2-amine]: the concentration for half-maximal inhibition (IC50) in assay [1] fell in the range of 0.02 to 0.2 µM; in assay [2], 5 to 50 µM; in assay [3], 5 to 50 µM; in assay [4] (setting [5]), 5 to 50 µM.

On to `CP(C)(=O)c1cccc2c(-c3nc(N[C@@H](CO)C4CCC4)ncc3C(F)(F)F)c[nH]c12` [Compound 113, (R)-(3-(2-((1-cyclobutyl-2-hydroxyethyl)amino)-5-(trifluoromethyl)pyrimidin-4-yl)-1H-indole-7-yl)dimethylphosphine oxide], for which the IC50 in assay [1] was 0.02 to 0.2 µM; in assay [2], 5 to 50 µM; in assay [3], above 50 µM; in assay [4] (setting [5]), above 50 µM.

For the molecule `CC1([C@@H](CO)Nc2ncc(C(F)(F)F)c(-c3c[nH]c4c(P(C)(C)=O)cccc34)n2)CC1` [Compound 112, (S)-(3-(2-((2-hydroxy-1-(1-methylcyclopropyl)ethyl)amino)-5-(trifluoromethyl)pyrimidin-4-yl)-1H-indole-7-yl)dimethylphosphine oxide], the IC50 was 0.02 to 0.2 µM in assay [1], 5 to 50 µM in assay [2], above 50 µM in assay [3] and above 50 µM in assay [4] (setting [5]).

Take `CP(C)(=O)c1cccc2c(-c3nc(NCC(O)C4CCC4)ncc3C(F)(F)F)c[nH]c12` (single isomer, unassigned) [Compound 139]: the IC50 in assay [1] is 0.02 to 0.2 µM; in assay [2], 5 to 50 µM; in assay [3], above 50 µM; in assay [4] (setting [5]), above 50 µM.

In the case of `C[C@@H](CO)Nc1nccc(-c2c[nH]c3c(P(C)(C)=O)cccc23)n1` [Compound 186], the half-maximal inhibitory concentration (IC50) in assay [1] was 5 to 50 µM; in assay [2], above 50 µM; in assay [3], above 50 µM; in assay [4] (setting [5]), above 50 µM.

Regarding `FC(F)(F)c1cnc(NC2CCCC3(CCCN3)C2)nc1-c1c[nH]c2nc(N3CCOCC3)ccc12` (centres unmarked) [Compound 38, N-(4-(6-morpholinyl-1H-pyrrolo[2,3-b]pyridin-3-yl)-5-(trifluoromethyl)pyrimidin-2-yl)-1-azaspiro[4.5]decan-7-amine], the IC50 in assay [1] lay within 0.02 to 0.2 µM; in assay [2] it was 5 to 50 µM; in assay [3], 5 to 50 µM; in assay [4] (setting [5]), 5 to 50 µM.

Regarding `CN(C)CC1CCCC1Nc1ncc(C(F)(F)F)c(-c2c[nH]c3c(P(C)(C)=O)cccc23)n1` (single isomer, unassigned) [Compound 136], the IC50 in assay [1] was 0.02 to 0.2 µM; in assay [2], above 50 µM; in assay [3], above 50 µM; in assay [4] (setting [5]) it was above 50 µM.

For `COc1cc(P(C)(C)=O)c2[nH]cc(-c3nc(N[C@@H](C)CO)ncc3C(F)(F)F)c2c1` [Compound 104], the IC50 is 0.02 to 0.2 µM in assay [1], 0.2 to 5 µM in assay [2], above 50 µM in assay [3] and above 50 µM in assay [4] (setting [5]).

Take `CP(C)(=O)c1cccc2c(-c3nc(NC4CC(F)(F)CC4O)ncc3C(F)(F)F)c[nH]c12` (single isomer, unassigned) [Compound 192]: the IC50 in assay [1] was 0.02 to 0.2 µM; in assay [2], 5 to 50 µM.

`CN[C@@H]1C[C@H]2O[C@@](C)([C@@H]1OC)n1c3ccccc3c3c4c(c5c6ccccc6n2c5c31)C(=O)NC4` [Staurosporine, staurosporine, reference compound]: in assay [4] (CDK12 IC50, CDK12/cyclinK 50 nM), the half-inhibitory concentration (IC50) was in the range of 0.2 to 5 µM.

As to `FC(F)(F)c1cnc(N[C@@H]2CCC[C@@H]3CNC[C@@H]32)nc1-c1c[nH]c2nc(N3CCOCC3)ccc12` [Compound 45, (3aR,4R,7aS)-N-(4-(6-morpholinyl-1H-pyrrolo[2,3-b]pyridin-3-yl)-5-(trifluoromethyl)pyrimidin-2-yl)octahydro-1H-isoindole-4-amine], the IC50 in assay [1] lay in the range of 0.02 to 0.2 µM; in assay [2], 5 to 50 µM; in assay [3] it was 5 to 50 µM; in assay [4] (setting [5]), 5 to 50 µM.

Turning to `COc1ccc2c(-c3nc(N[C@@H](C)CO)ncc3C(F)(F)F)c[nH]c2c1P(C)(C)=O` [Compound 106, (S)-(3-(2-((1-hydroxypropan-2-yl)amino)-5-(trifluoromethyl)pyrimidin-4-yl)-6-methoxy-1H-indole-7-yl)dimethylphosphine oxide], the IC50 in assay [1] lay in the range of 0.02 to 0.2 µM; in assay [2] it was 0.2 to 5 µM; in assay [3] it was 5 to 50 µM; in assay [4] (setting [5]), 5 to 50 µM.

In assay [1], `CP(C)(=O)c1cccc2c(-c3nc(NC4CCC[C@H]4CN)ncc3C(F)(F)F)c[nH]c12` (stereo in doubt) [Compound 131, (3-(2-((cis-2-(aminomethyl)cyclopentyl)amino)-5-(trifluoromethyl)pyrimidin-4-yl)-1H-indole-7-yl)dimethylphosphine oxide] came in with an IC50 below 0.02 µM.
